# Measurements: patent US9981999B2, “Neprilysin inhibitors” (THERAVANCE BIOPHARMA R&D IP, LLC, priority 2012, dated 2018)
# Target: T1, human neprilysin (EC 3.4.24.11; NEP) (Homo sapiens, UniProt P08473)
# T1 construct: purchased R&D Systems, Minneapolis, MN 1182-ZN
# Assay: In vitro enzyme inhibition assay at human NEP (fluorogenic peptide substrate)
# Assay type: biochemical
# Conditions: recombinant human NEP; fluorogenic substrate Mca-D-Arg-Arg-Leu-Dap-(Dnp)-OH; 37° C., pH 7.5; read-out: pKi value at human NEP (converted)
# Experimental: The inhibitory activities of compounds at human and rat neprilysin (EC 3.4.24.11; NEP) and human angiotensin converting enzyme (ACE) were determined using in vitro assays as described below.
# Recombinant human NEP and recombinant human ACE were obtained commercially (R&D Systems, Minneapolis, MN, catalog numbers 1182-ZN and 929-ZN, respectively). The fluorogenic peptide substrate Mca-D-Arg-Arg-Leu-Dap-(Dnp)-OH (Medeiros et al. (1997) Braz. J. Med. Biol. Res. 30:1157-62; Anaspec, San Jose, Calif.) and Abz-Phe-Arg-Lys(Dnp)-Pro-OH (Araujo et al. (2000) Biochemistry 39:8519-8525; Bachem, Torrance, Calif.) were used in the NEP and ACE assays respectively.
# The assays were performed in 384-well white opaque plates at 37° C. using the fluorogenic peptide substrates at a concentration of 10 µM in Assay Buffer (NEP: 50 mM HEPES, pH 7.5, 100 mM NaCl, 0.01% polyethylene glycol sorbitan monolaurate (Tween-20), 10 μM ZnSO4; ACE: 50 mM HEPES, pH 7.5, 100 mM NaCl, 0.01% Tween-20, 1 μM ZnSO4).
# Test compounds were assayed over the range of concentrations from […] to 20 μM. Test compounds were added to the enzymes and incubated for 30 minute at 37° C. prior to initiating the reaction by the addition of substrate. […]
# Plates were read on a fluorometer with excitation and emission wavelengths set to 320 nm and 405 nm, respectively. […]
# T1 sequence (P08473 52-750 limits assumed): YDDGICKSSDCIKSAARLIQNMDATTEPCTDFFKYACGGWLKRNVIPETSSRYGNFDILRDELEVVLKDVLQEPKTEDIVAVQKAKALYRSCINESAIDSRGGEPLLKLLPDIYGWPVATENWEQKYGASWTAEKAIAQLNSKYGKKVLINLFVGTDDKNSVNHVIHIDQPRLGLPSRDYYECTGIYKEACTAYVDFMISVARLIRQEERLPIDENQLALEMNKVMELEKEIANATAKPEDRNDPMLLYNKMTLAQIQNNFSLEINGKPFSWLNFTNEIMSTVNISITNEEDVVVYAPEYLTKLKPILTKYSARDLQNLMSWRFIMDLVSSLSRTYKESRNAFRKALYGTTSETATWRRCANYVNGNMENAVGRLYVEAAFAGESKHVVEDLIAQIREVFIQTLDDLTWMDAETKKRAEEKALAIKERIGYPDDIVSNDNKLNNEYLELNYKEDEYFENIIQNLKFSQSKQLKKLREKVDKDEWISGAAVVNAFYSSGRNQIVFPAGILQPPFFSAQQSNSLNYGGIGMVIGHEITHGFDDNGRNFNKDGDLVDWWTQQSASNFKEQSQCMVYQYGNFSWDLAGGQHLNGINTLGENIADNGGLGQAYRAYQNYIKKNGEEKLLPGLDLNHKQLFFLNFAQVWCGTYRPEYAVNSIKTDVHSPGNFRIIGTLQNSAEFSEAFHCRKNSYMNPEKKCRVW
smiles,measurement,value
"CC(=O)c1cc(C(=O)NN(Cc2ccc(-c3cc(Cl)ccc3F)cc2)C[C@@H](O)C(=O)O)[nH]n1 [Example 6A, (R)-3-[N′-(5-Acetyl-2H-pyrazole-3-carbonyl)-N-(5′-chloro-2′-fluorobiphenyl-4-ylmethyl)hydrazino]-2-hydroxypropionic Acid]",Ki,≤ 1 nM
